One assay addresses T1, RIPK1 kinase (Homo sapiens, UniProt Q13546).
T1 construct: purchased Promega VA7593
T1 sequence (Q13546 1-671): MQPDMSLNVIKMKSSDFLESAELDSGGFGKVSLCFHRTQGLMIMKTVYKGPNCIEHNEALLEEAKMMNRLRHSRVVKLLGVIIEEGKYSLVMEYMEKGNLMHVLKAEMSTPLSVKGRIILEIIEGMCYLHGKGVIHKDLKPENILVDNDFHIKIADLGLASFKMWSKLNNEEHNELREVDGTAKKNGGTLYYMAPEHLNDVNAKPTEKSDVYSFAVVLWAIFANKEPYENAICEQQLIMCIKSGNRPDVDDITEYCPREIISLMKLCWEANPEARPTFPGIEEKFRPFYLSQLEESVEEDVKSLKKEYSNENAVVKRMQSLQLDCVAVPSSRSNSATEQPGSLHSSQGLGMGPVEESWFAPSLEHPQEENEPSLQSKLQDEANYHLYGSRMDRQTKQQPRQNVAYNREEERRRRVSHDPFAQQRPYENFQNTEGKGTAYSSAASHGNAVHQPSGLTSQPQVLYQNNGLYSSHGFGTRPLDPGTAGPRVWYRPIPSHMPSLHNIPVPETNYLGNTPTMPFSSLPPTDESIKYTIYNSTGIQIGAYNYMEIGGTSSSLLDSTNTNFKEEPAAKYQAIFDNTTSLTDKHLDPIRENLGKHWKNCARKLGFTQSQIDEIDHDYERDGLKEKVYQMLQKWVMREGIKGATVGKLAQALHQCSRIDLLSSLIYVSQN
In words: In vitro RIPK1 kinase activity assay (ADP-Glo), inhibition by compounds at 1 μM. The assay is classed as biochemical. The following applies: compound 1 μM; ATP 10 μM; MBP substrate 100 μg/mL; read-out: RIPK1 kinase activity inhibition rate range. The gist of the method: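 Compound and RIPK1 were preincubated 15 min at room temperature, then reacted 1 h with 10 μM ATP and 100 μg/mL MBP substrate in kinase buffer D. ADP formed was measured by ADP-Glo luminescence and converted to percent inhibition of kinase activity.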
A general note: ADP-Glo first removes unused ATP, then detects ADP through luciferase.

The subject of the next assay is U937 cells. The assay is described as follows: Inhibition rate of compound (1 μM) on necroptosis of U937 cells (TSZ-induced, CellTiter-Glo). The assay is classed as cell-based. The following applies: TSZ (hTNF-α, SM-164, Z-VAD-FMK) 20 hours. The method in brief: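 U937 cells were pretreated 15 min with compound, then necroptosis was triggered with TSZ (Z-VAD-FMK, hTNF-α, SM-164) for 20 h at 37° C. Viability was read as ATP by CellTiter-Glo luminescence, and inhibition (%) was taken relative to no-TSZ and TSZ-only wells.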
(In ATP-based viability assays light output follows the ATP content of the culture.)

The inhibition is the relative decrease from the control value, in per cent. Regarding `C[C@@H](NC(=O)C(=O)N[C@H]1COc2ccc(C#CCN(C)C)cc2N(C)C1=O)c1ccccc1` [Example 146, N^1-((S)-7-(3-(dimethylamino)prop-1-yn-1-yl)-5-methyl-4-oxo-2,3,4,5-tetrahydrobenzo[b][1,4]oxazepin-3-yl)-N^2-((R)-1-phenylethyl)oxalamide], the inhibition at 1 µM at RIPK1 kinase was 50 to 74%. In the assay with U937 cells, the “Inhibition rate range of compounds (1 μM) on U937 cell necroptosis” value (shortened to “Inhibition rate range of compounds”) is recorded as “A (A: ≥90%)”.
For `C[C@@H](NC(=O)C(=O)N[C@H]1COc2ccc(C#CC3CN(CC#N)C3)cc2N(C)C1=O)c1ccccc1` [Example 148, N^1-((S)-7-((1-(cyanomethyl)azetidin-3-yl)ethynyl)-5-methyl-4-oxo-2,3,4,5-tetrahydrobenzo[b][1, 4]oxazepin-3-yl)-N^2-((R)-1-phenylethyl)oxalamide] the same measures were at least 75% and “A (A: ≥90%)”.
Turning to `C[C@@H](CNC(=O)C(=O)N[C@H]1COc2ccc(C#CCCO)cc2N(C)C1=O)c1ccccc1` [Example 155, N^1-((S)-7-(4-hydroxybut-1-yn-1-yl)-5-methyl-4-oxo-2,3,4,5-tetrahydrobenzo[b][1,4]oxazepin-3-yl)-N^2-((R)-2-phenylpropyl)oxalamide], the inhibition at 1 µM at RIPK1 kinase is at least 75%. Further, in the assay with U937 cells, the “Inhibition rate range of compounds” value is “A (A: ≥90%)”.
With `C[C@H](CNC(=O)C(=O)N[C@H]1COc2ccc(C#CCCO)cc2N(C)C1=O)c1ccccc1` [Example 156, N^1-((S)-7-(4-hydroxybut-1-yn-1-yl)-5-methyl-4-oxo-2,3,4,5-tetrahydrobenzo[b][1,4]oxazepin-3-yl)-N^2-((S)-2-phenylpropyl)oxalamide], the inhibition at 1 µM on RIPK1 kinase lay in the range of 50 to 74%. The “Inhibition rate range of compounds” value with U937 cells is on record as “A (A: ≥90%)”.
The like results for `C[C@@H](CNC(=O)C(=O)N[C@H]1COc2ccc(C#CC3(O)COC3)cc2N(C)C1=O)c1ccccc1` [Example 158, N^1-((S)-7-((3-hydroxyoxetan-3-yl)ethynyl)-5-methyl-4-oxo-2,3,4,5-tetrahydrobenzo[b][1,4]oxazepin-3-yl)-N^2-((R)-2-phenylpropyl)oxalamide] were, in that order, at least 75% and “A (A: ≥90%)”.
For `C[C@@H](CNC(=O)C(=O)N[C@H]1COc2ccc(C#CCN3CCOCC3)cc2N(C)C1=O)c1ccccc1` [Example 159, N^1-((S)-5-methyl-7-(3-morpholinoprop-1-yn-1-yl)-4-oxo-2,3,4,5-tetrahydrobenzo[b][1,4]oxazepin-3-yl)-N^2-((R)-2-phenylpropyl)oxalamide] the same measures were at least 75% and “A (A: ≥90%)”.
For `CN1C(=O)C(NC(=O)C(=O)NCCc2cccc(F)c2)CCc2ccc(C#CCCO)cc21` (centres unmarked) [Example 167, N^1-(3-fluorophenethyl)-N^2-(8-(4-hydroxybut-1-yn-1-yl)-1-methyl-2-oxo-2,3,4,5-tetrahydro-1H-benzo[b]azepin-3-yl)oxalamide] the same measures were at least 75% and “A (A: ≥90%)”.

Source of the values: patent publication US20250368633A1, “AZEPINE FUSED RING COMPOUND AS RIPK1 INHIBITOR AND USE THEREOF” (ARTIVILA BIOPHARMA, priority 2022, published 2025).
